This is an account of results in US8962608B2, “Cycloalkylnitrile pyrazole carboxamides as janus kinase inhibitors” (Merck Sharp & Dohme Corp., priority 2011, dated 2015).

The test addresses JAK2 (recombinant purified GST-tagged catalytic domain) (Homo sapiens (Human), UniProt O60674). The experiment in a line: biochemical.
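Note: biochemical JAK kinase assay with HTRF detection.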

Chain of JAK2 (recombinant purified GST-tagged catalytic domain) (O60674 849-1124): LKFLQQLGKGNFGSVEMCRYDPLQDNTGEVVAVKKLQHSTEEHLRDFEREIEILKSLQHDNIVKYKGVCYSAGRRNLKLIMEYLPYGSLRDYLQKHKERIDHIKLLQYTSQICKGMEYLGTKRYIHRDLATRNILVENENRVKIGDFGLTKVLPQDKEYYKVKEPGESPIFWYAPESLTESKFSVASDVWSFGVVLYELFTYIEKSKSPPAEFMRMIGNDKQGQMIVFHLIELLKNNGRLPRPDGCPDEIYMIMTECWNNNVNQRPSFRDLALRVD

The IC50 is the point on the concentration scale where inhibition reaches its midpoint. Turning to `N#C[C@H]1C[C@H](NCc2c(F)cccc2F)CC[C@@H]1n1cc(C(N)=O)c(Nc2ccc(C(F)(F)F)cc2)n1` (single isomer, unassigned) [Example 30-13, 1-{(1S,2S,4R or 1R,2R,4S)-2-cyano-4-[(2,6-difluoro-benzyl)amino]cyclohexyl}-3-{[4-(trifluoromethyl)phenyl]amino}-1H-pyrazole-4-carboxamide], the half-maximal inhibitory concentration (IC50) was determined as 500 nM.

As to `CC(C)(c1ccc(Nc2nn([C@H]3CCCC[C@@H]3C#N)cc2C(N)=O)cc1F)[C@H](O)C(F)(F)F` (single isomer, unassigned) [Example 17-32, 1-[(1S,2S or 1R,2R)-2-cyanocyclohexyl]-3-({3-fluoro-4-[(2S or 2R)-3,3,3-trifluoro-2-hydroxy-1,1-dimethylpropyl]phenyl}amino)-1H-pyrazole-4-carboxamide], the 50% inhibitory concentration (IC50) was 11 nM.

Turning to `N#C[C@H]1C[C@H](N2CCC2)CC[C@@H]1n1cc(C(N)=O)c(Nc2ccc([C@H](O)C(F)(F)F)cc2)n1` (single isomer, unassigned) [Example 28-65, 1-[(1S,2S,4R or 1R,2R,4S)-4-azetidin-1-yl-2-cyanocyclohexyl]-3-({4-[(1S or 1R)-2,2,2-trifluoro-1-hydroxyethyl]phenyl}amino)-1H-pyrazole-4-carboxamide], the IC50 was 12 nM.

Regarding `N#C[C@H]1C[C@H](N2CCC2)CC[C@@H]1n1cc(C(N)=O)c(Nc2ccc(Cl)c(F)c2)n1` (single isomer, unassigned) [Example 28-37, 1-[(1S,2S,4R or 1R,2R,4S)-4-azetidin-1-yl-2-cyanocyclohexyl]-3-[(4-chloro-3-fluorophenyl)amino]-1H-pyrazole-4-carboxamide], the IC50 stood at 120 nM.

As to `C[C@H](N[C@@H]1CC[C@H](n2cc(C(N)=O)c(Nc3ccc(S(=O)(=O)C(F)(F)F)cc3)n2)[C@@H](C#N)C1)C1CC1` (single isomer, unassigned) [Example 28-185, 1-[(1S,2S,4R or 1R,2R,4S)-2-cyano-4-{[(1S)-1-cyclopropylethyl]amino}cyclo-hexyl]-3-({4-[(trifluoromethyl)sulfonyl]phen-yl}amino)-1H-pyrazole-4-carboxamide], the IC50 was found to be 83 nM.

Consider `N#C[C@H]1C[C@@H](OCC2CC2)CC[C@H]1n1cc(C(N)=O)c(Nc2ccc(F)cc2)n1` (single isomer, unassigned) [Example 26-11, 1-[(1R,2S,4S or 1S,2R,4R)-2-cyano-4-(cyclopropylmethoxy)cyclohexyl]-3-[(4-fluorophenyl)amino]-1H-pyrazole-4-carboxamide], for which the IC50 is above 1500 nM.

Regarding `N#C[C@H]1CCCC[C@@H]1n1cc(C(N)=O)c(Nc2ccc(C=O)cc2)n1` (single isomer, unassigned) [Example 17-25, 1-[(1S,2S or 1R,2R)-2-cyanocyclohexyl]-3-[(4-formylphenyl)amino]-1H-pyrazole-4-carboxamide], the IC50 is 3 nM.

Take `N#C[C@@H]1C[C@@H](OCC2CC2)CC[C@H]1n1cc(C(N)=O)c(Nc2ccc(F)cc2)n1` (single isomer, unassigned) [Example 26-10, 1-[(1R,2R,4S or 1S,2S,4R)-2-cyano-4-(cyclopropylmethoxy)cyclohexyl]-3-[(4-fluorophenyl)amino]-1H-pyrazole-4-carboxamide]: the 50% inhibitory concentration (IC50) stood at 102 nM.

For `C[C@@H](N[C@H]1CC[C@H](n2cc(C(N)=O)c(Nc3ccc(S(=O)(=O)C(F)(F)F)cc3)n2)[C@@H](C#N)C1)C1CC1` (single isomer, unassigned) [Example 28-182, 1-[(1S,2S,4S or 1R,2R,4R)-2-cyano-4-{[(1R)-1-cyclopropylethyl]amino}cyclo-hexyl]-3-({4-[(trifluoromethyl)sulfonyl]phen-yl}amino)-1H-pyrazole-4-carboxamide], the IC50 came out at 12 nM.

For `N#C[C@H]1C[C@H](NC2CC2)CC[C@@H]1n1cc(C(N)=O)c(Nc2ccc(C(F)(F)F)cc2)n1` (single isomer, unassigned) [Example 28-139, 1-[(1S,2S,4R or 1R,2R,4R)-2-cyano-4-(cyclopropylamino)cyclohexyl]-3-{[4-(trifluoromethyl)phenyl]amino}-1H-pyrazole-4-carboxamide], the IC50 is 113 nM.

With `CC1(C)CN([C@H]2CC[C@H](n3cc(C(N)=O)c(Nc4ccc(Cl)cc4)n3)[C@@H](C#N)C2)C1` (single isomer, unassigned) [Example 28-144, 3-[(4-chlorophenyl)amino]-1-[(1S,2S,4S or 1R,2R,4R)-2-cyano-4-(3,3-dimethylazetidin-1-yl)cyclohexyl]-1H-pyrazole-4-carboxamide], the IC50 worked out at 21 nM.

For `N#C[C@H]1C[C@@H](NC2CC2)CC[C@@H]1n1cc(C(N)=O)c(Nc2ccc(C(F)(F)F)cc2)n1` (single isomer, unassigned) [Example 28-137, 1-[(1S,2S,4S or 1R,2R,4R)-2-cyano-4-(cyclopropylamino)cyclohexyl]-3-{[4-(trifluoromethyl)phenyl]amino}-1H-pyrazole-4-carboxamide], the IC50 amounted to 22 nM.

Take `N#C[C@H]1C[C@@H](NCC(F)(F)F)CC[C@@H]1n1cc(C(N)=O)c(Nc2ccc(S(=O)(=O)C(F)(F)F)cc2)n1` (single isomer, unassigned) [Example 28-107, 1-{(1S,2S,4S or 1R,2R,4R)-2-cyano-4-[(2,2,2-trifluoroethyl)amino]cyclohexyl}-3-({4-[(trifluoro-methyl)sulfonyl]phenyl}amino)-1H-pyrazole-4-carboxamide]: the IC50 came to 31 nM.

With `N#C[C@H]1CCCC[C@@H]1n1cc(C(N)=O)c(Nc2ccc(F)c(Cl)c2)n1` (racemic) [Example 17-58, 3-[(3-chloro-4-fluorophenyl)amino]-1-[(1S,2S and 1R,2R)-2-cyanocyclohexyl]-1H-pyrazole-4-carboxamide], the IC50 was determined as 42 nM.

`N#C[C@H]1C[C@H](N2CCC2)CC[C@@H]1n1cc(C(N)=O)c(Nc2ccc([C@@H](O)C(F)(F)F)cc2)n1` (single isomer, unassigned) [Example 28-85, 1-[(1S,2S,4R or 1R,2R,4S)-4-azetidin-1-yl-2-cyanocyclohexyl]-3-({4-[(1R or 1S)-2,2,2-trifluoro-1-hydroxyethyl]phenyl}amino)-1H-pyrazole-4-carboxamide]: the IC50 was 17 nM.

For the compound `CS(=O)(=O)c1ccc(Nc2nn([C@H]3CC[C@H](N4CC5(CCC5)C4)C[C@@H]3C#N)cc2C(N)=O)cc1` (single isomer, unassigned) [Example 28-130, 1-[(1S,2S,4S or 1R,2R,4R)-4-(2-azaspiro[3.3]hept-2-yl)-2-cyanocyclohexyl]-3-{[4-(methylsulfonyl)phenyl]amino}-1H-pyrazole-4-carboxamide], the IC50 came to 5 nM.

Regarding `CC1(C)CN([C@H]2CC[C@H](n3cc(C(N)=O)c(Nc4ccc([C@@H](O)C(F)(F)F)cc4)n3)[C@@H](C#N)C2)C1` (single isomer, unassigned) [Example 28-61, 1-[(1S,2S,4S or 1R,2R,4R)-2-cyano-4-(3,3-dimethylazetidin-1-yl)cyclohexyl]-3-({4-[(1R or 1S)-2,2,2-trifluoro-1-hydroxyethyl]phenyl}amino)-1H-pyrazole-4-carboxamide], the IC50 was determined as 4 nM.

On to `CC(C)(C)N[C@H]1CCC(n2cc(C(N)=O)c(Nc3ccccc3)n2)[C@@H](C#N)C1` (single isomer, unassigned) [Example 28-215, 1-[(1S,2S,4S or 1R,2R,4R)-4-(tert-butylamino)-2-cyanocyclohexyl]-3-(phenylamino)-1H-pyrazole-4-carboxamide], for which the IC50 stood at 28 nM.

For the compound `N#C[C@H]1C[C@@H](O)CC[C@@H]1n1cc(C(N)=O)c(Nc2ccc(C3CC3)cc2)n1` (single isomer, unassigned) [Example 33-18, 1-[(1S,2S,4S or 1R,2R,4R)-2-cyano-4-hydroxycyclohexyl]-3-[(4-cyclopropylphenyl)amino]-1H-pyrazole-4-carboxamide], the IC50 worked out at 10 nM.

On to `N#C[C@H]1CCCC[C@@H]1n1cc(C(N)=O)c(Nc2ccccc2)n1` (racemic) [Example 2-1, 1-((1S,2S and 1R,2R)-2-cyanocyclohexyl)-3-(phenylamino)-1H-pyrazole-4-carboxamide], for which the IC50 was 36 nM.

In the case of `N#C[C@H]1C[C@@H](N2CCC2)CC[C@@H]1n1cc(C(N)=O)c(Nc2ccc(C=O)cc2)n1` (single isomer, unassigned) [Example 28-66, 1-[(1S,2S,4S or 1R,2R,4R)-4-azetidin-1-yl-2-cyanocyclohexyl]-3-[(4-formylphenyl)amino]-1H-pyrazole-4-carboxamide], the IC50 worked out at 16 nM.

As to `N#C[C@H]1CCCC[C@@H]1n1cc(C(N)=O)c(Nc2ccc(OC(F)F)nc2)n1` (racemic) [Example 17-102, 1-[(1S,2S and 1R,2R)-2-cyanocyclohexyl]-3-{[6-(difluoromethoxy)pyridin-3-yl]amino}-1H-pyrazole-4-carboxamide], the IC50 turned out to be 39 nM.

Regarding `CC(C)(C)OC(=O)NC1CC[C@H](C#N)C(n2cc(C(N)=O)c(Nc3ccc(F)cc3)n2)C1` (mixture of isomers) [Example 11-5, tert-butyl [(1R,3S,4S and 1S,3R,4R) or (1S,3S,4S and 1R,3R,4R)-3-{4-carbamoyl-3-[(4-fluorophenyl)amino]-1H-pyrazol-1-yl}-4-cyanocyclohexyl]carbamate], the IC50 stood at 22 nM.

Consider `CN(C)[C@@H]1CC[C@@H](n2cc(C(N)=O)c(Nc3ccc(C(F)(F)F)nc3)n2)[C@H](C#N)C1` (single isomer, unassigned) [Example 28-18, 1-[(1R,2R,4R or 1S,2S,4S)-2-cyano-4-(dimethylamino)cyclohexyl]-3-{[6-(trifluoromethyl)pyridin-3-yl]amino}-1H-pyrazole-4-carboxamide], for which the IC50 came out at 400 nM.

On to `N#C[C@@H]1C[C@H](OCC2CC2)CC[C@H]1n1cc(C(N)=O)c(Nc2ccc([C@@H](O)C(F)(F)F)cc2)n1` (single isomer, unassigned) [Example 26-8, 1-[(1R,2R,4R or 1S,2S,4S)-2-cyano-4-(cyclopropylmethoxy)cyclohexyl]-3-({4-[(1R or 1S)-2,2,2-trifluoro-1-hydroxyethyl]phenyl}amino)-1H-pyrazole-4-carboxamide], for which the IC50 came to 19 nM.
